Measured values from patent US7030093B2, “Antibiotic coating for porous bodies and method for its production as well as its use” (HERAEUS Kulzer GmbH & Co. KG, priority 2002, dated 2006).

Assay: Release of the antibiotic from the salts in an aqueous environment (finding in words)
Format: physicochemical
Settings: method not given

| Substance | Release of the underlying antibiotic in an aqueous environment |
| --- | --- |
| amikacin myristate | in a delayed fashion |
| amikacin dodecyl sulfate | in a delayed fashion |
| Amikacin laurate | in a delayed fashion |
